Reference: article PMC10931745 (International Journal of Molecular Sciences, 2024)

Assays:
[1] = test system: human mammary epithelial cell line MCF-10A; assay: MTT assay, toxicity towards normal cells; format: cell-based; details: 72 h
Description: (§1) The cell lines used were purchased from American Type Culture Collection (ATCC, Manassas, VA, USA). Human breast cancer cells MCF-7 and MDA-MB-231, human mammary epithelial cell line MCF-10A, and mouse BALB/3T3 embryonic fibroblasts were cultured as already described by some of us. The murine macrophage cell line RAW 264.7 was maintained in Dulbecco’s Modified Eagle’s Medium (DMEM) high glucose (4.5 g/L) supplemented with 10% Fetal Bovine Serum (FBS), 1% L-glutamine, and 100 units/mL of penicillin/streptomycin. The cell cultures were maintained at the temperature of 37 °C in a humidified atmosphere containing 5% CO2.
(§2) The 3-(4,5-dimethylthiazol-2-yl)-2,5-diphenyl-2H-tetrazolium bromide (MTT) assay (Sigma Aldrich (St. Louis, MO, USA)) was carried out to study the in vitro anticancer activities of the complexes, following the previously reported protocol. The cells were incubated for 72 h with different concentrations of the tested compounds (0.1, 1, 10, 25, 50, 100, and 500 µM) and the IC50 values were calculated from the percent (%) of control using the software GraphPad Prism 9 (GraphPad Software, La Jolla, CA, USA).

[2] = test system: Staphylococcus aureus (ATCC 23235); assay: MIC/MBC broth dilution; format: cell-based
Description: (§3) The bacterial strains used for MIC and MBC value determinations expressed as µg/mL by the broth dilution method, according to CLSI guidelines, were the following:
(§4) -3 Gram-positive: Enterococcus faecalis (ATCC® 19433^TM), Staphylococcus aureus (ATCC® 23235^TM), and Staphylococcus epidermidis (ATCC® 14990™).
(§5) Increasing concentrations of the complexes (50, 70, 100, 150, and 200 µg/mL) were incubated with bacteria plated in 96-well microplates at 37 °C overnight as already reported, and then bacterial growth was checked at a wavelength of 600 nm using a Multiskan spectrophotometer (model Multiskan Ex Microplate; Thermo Scientific, Nyon, Switzerland). MIC or MBC values were obtained by comparing cell density with a positive control (bacterial cells grown in LB medium were added with only the vehicle, DMSO). The results were representative of three independent experiments performed in triplicate. Ampicillin, Gentamicin, and Cephalosporin (Sigma Aldrich A9393) were used as the control for strain sensitivity.

[3] = test system: Enterococcus faecalis (ATCC 19433); assay: MIC/MBC broth dilution; format: cell-based
Description: as §3, §4, §5

[4] = test system: Staphylococcus epidermidis (ATCC 14990); assay: MIC/MBC broth dilution; format: cell-based
Description: as §3, §4, §5

[5] = DPPH radical scavenging assay; format: biochemical
Description: The radical scavenging properties of the complexes on the 1,1-diphenyl-2-picrylhydrazil (DPPH) radical were evaluated as previously described.
All the complexes were used at different concentrations (10, 25, 50, 100, and 200 µg/mL) and the DPPH radical scavenging activity, measured at 517 nm using a microplate reader, was expressed as inhibition percentages (%IDPPH) compared to the initial concentration of DPPH (control) according to the following expression:(2) IDPPH (%)=ABSCTRL−ABSsample/ABSCTRL∗100 where ABSCTRL and ABSsample are the absorbance at 517 nm in the control and in the presence of samples, respectively.
The obtained IDPPH percentages allowed us to calculate the IC50 values using Graph-Pad Prism 9 software (GraphPad Inc., San Diego, CA, USA). Trolox was employed as a positive control, while caffeine and theophylline were reference compounds.

[6] = ABTS radical scavenging assay; format: biochemical
Description: The radical scavenging properties of the complexes on a 2,20-azino-bis(3-ethylbenzothiazoline-6-sulfonate) radical cation (ABTS^+) were evaluated as previously described.
All the complexes were used at different concentrations (5, 10, 25, 50, and 100 µg/mL) and the ABTS radical scavenging activity, measured at 730 nm using a microplate reader, was expressed as inhibition percentages (%IABTS) compared tothe control, according to the following expression:(3) IABTS (%)=ABSCTRL−ABSsample/ABSCTRL∗100 where ABSCTRL and ABSsample are the absorbance at 730 nm in the control and in the presence of samples, respectively.
IC50 values were calculated from the %IABTS using GraphPad Prism 9 software (GraphPad Inc., San Diego, CA, USA). Trolox was employed as a positive control, while caffeine and theophylline were reference compounds.

[7] = test system: Pseudomonas aeruginosa (ATCC 15442); assay: MIC/MBC broth dilution; format: cell-based
Description: as §3
as §5, with “The results were representative of three independent experiments performed in triplicate.” left out

[8] = test system: Salmonella typhimurium (ATCC 14028); assay: MIC/MBC broth dilution; format: cell-based
Description: as §3
as §5, with “The results were representative of three independent experiments performed in triplicate.” left out

MDA-MB-231 = assay: MTT cell viability assay; format: cell-based, human
Description: as §1, §2

MCF-7 = assay: MTT cell viability assay; format: cell-based, human
Description: as §1, §2

[9] = test system: Klebsiella pneumoniae (ATCC 13883); assay: MIC/MBC broth dilution; format: cell-based
Description: as §3
(§6) -4 Gram-negative: Escherichia coli (ATCC® 25922^TM) and Klebsiella pneumoniae (ATCC® 13883^TM);
as §5

[10] = test system: Escherichia coli (ATCC 25922); assay: MIC/MBC broth dilution; format: cell-based
Description: as §3, §6, §5

[11] = test system: ROS production in BALB/3T3 fibroblasts; assay: Intracellular ROS detection with DCFH2-DA; format: cell-based, murine; details: 25 µM, 24 h pre-treatment
Description: In vitro detection of intracellular ROS on fibroblasts BALB/3T3 using DCFH2-DA The assay to evaluate the in vitro antioxidant activity was carried out using the murine BALB/3T3 fibroblasts that were plated in a white 96 MW and then treated with the complexes at a concentration of 25 µM for 24 h. Menadione (25 µM) was then added for 15 min to induce ROS production. After treatment, the cells were washed with PBS and treated with 25 μM 2′-7′-dichlorofluorescein diacetate (DCFH2-DA, Sigma-Aldrich, St. Louis, MO, USA), and then they were incubated for 40 min at 37 °C and 5% CO2. The probe DCFH2-DA penetrates cells where it is […] into a non-fluorescent form (DCFH2) by endogenous esterases. In the presence of intracellular ROS, non-fluorescent H2DCF is oxidized to the fluorescent 2′,7′-dichlorofluorescein (DCF). Then, the cells were washed with PBS and the fluorescence was detected using a multiplate reader (λex = 485 nm, λem = 535 nm). Based on the obtained fluorescence values, the ROS production inhibition % (IROS) vs. menadione was calculated using the following formula:(1) IROS vs. Menadione (%)=FMen−FSample/FMen∗100 where FMen represents the mean fluorescence obtained after treatment with menadione alone and Fsample represents the mean fluorescence obtained after the co-treatment with the complexes and menadione.

[12] = molecular target: T1, human topoisomerase I (hTopoI) (Homo sapiens, UniProt P11387); assay: Human topoisomerase I relaxation assay; format: biochemical; details: 1 µM, supercoiled pHOT1 DNA
T1 construct: purchased TopoGEN, Port Orange, FL, USA
T1 sequence (P11387 1-765): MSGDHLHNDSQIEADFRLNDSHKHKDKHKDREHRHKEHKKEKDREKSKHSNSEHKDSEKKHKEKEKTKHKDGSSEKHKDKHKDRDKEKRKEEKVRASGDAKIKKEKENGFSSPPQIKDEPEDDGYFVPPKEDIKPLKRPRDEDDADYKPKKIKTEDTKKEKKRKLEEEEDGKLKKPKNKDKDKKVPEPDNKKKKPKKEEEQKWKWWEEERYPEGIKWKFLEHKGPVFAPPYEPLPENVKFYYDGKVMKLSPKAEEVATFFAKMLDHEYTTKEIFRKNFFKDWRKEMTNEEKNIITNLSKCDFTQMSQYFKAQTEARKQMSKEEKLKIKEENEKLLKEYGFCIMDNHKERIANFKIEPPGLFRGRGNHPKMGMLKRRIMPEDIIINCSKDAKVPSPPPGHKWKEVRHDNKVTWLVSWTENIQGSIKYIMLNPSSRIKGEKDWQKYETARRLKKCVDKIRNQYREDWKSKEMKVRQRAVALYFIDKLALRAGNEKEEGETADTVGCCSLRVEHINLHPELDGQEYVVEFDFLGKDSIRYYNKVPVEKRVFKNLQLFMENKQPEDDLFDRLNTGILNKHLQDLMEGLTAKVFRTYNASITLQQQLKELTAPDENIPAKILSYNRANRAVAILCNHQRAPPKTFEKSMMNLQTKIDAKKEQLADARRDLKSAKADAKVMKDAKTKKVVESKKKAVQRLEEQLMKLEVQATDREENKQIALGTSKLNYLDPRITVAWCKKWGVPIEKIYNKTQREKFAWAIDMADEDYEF
Description: The human topoisomerase I relaxation assay was performed as reported in [86]. Shortly, the recombinant human topo I (TopoGEN, Port Orange, FL, USA) was incubated with the super-coiled pHOT1, in the presence or not of the tested compounds, at the indicated concentrations. The reaction products were then allowed to separate through the agarose gel electrophoresis, and ethidium bromide-stained DNA was visualized under UV light.

| Molecule | IC50 [1] | M.I.C. S. aureus [2] | M.I.C. E. faecalis [3] | M.I.C. S. epidermidis [4] | IC50 [5] | IC50 [6] | M.I.C. P. aeruginosa [7] | M.I.C. S. typhimurium [8] | IC50 (MDA-MB-231; 72 h) | IC50 (MCF-7; 72 h) | M.I.C. K. pneumoniae [9] | M.I.C. E. coli [10] | ROS level reduction vs. menadione [11] | also measured |
| --- | --- | --- | --- | --- | --- | --- | --- | --- | --- | --- | --- | --- | --- | --- |
| 1,3,7-Trimethylxanthin-9-[(2-hydroxy-2-phenyl)ethyl-8-ylidene]Au(I) Acetate [AuL1OAc] | > 100 µM | >200 µg/mL | >200 µg/mL | >200 µg/mL | > 500 µM | > 500 µM | >200 µg/mL | >200 µg/mL | > 100 µM | > 100 µM | >200 µg/mL | >200 µg/mL | ~54% | – |
| CC(=O)[O][Ag-][c]1n(C)c2c(c(=O)n(C)c(=O)n2C)[n+]1CC(O)c1ccccc1 (racemic) [AgL1OAc, 1,3,7-Trimethylxanthin-9-[(2-hydroxy-2-phenyl)ethyl-8-ylidene]Ag(I) Acetate] | > 100 µM | 125 µg/mL | 150 µg/mL | 125 µg/mL | > 500 µM | 149.2 ± 0.7 µM | 125 µg/mL | 150 µg/mL | 32.3 ± 0.9 µM | 39.6 ± 0.8 µM | 125 µg/mL | – | about 61% | M.B.C. S. aureus [2]: > 150 µg/mL; M.B.C. E. faecalis [3]: > 200 µg/mL; M.B.C. S. epidermidis [4]: > 150 µg/mL; M.B.C. P. aeruginosa [7]: > 150 µg/mL; M.B.C. S. typhimurium [8]: > 200 µg/mL; M.B.C. K. pneumoniae [9]: > 150 µg/mL; M.B.C. E. coli [10]: > 150 µg/mL |
| Cn1c(=O)c2c(ncn2C)n(C)c1=O [Caffeine, 1,3,7-trimethylxanthine, reference compound] | – | >200 µg/mL | >200 µg/mL | >200 µg/mL | > 500 µM | > 500 µM | >200 µg/mL | – | – | – | >200 µg/mL | >200 µg/mL | – | IC50 ([1]; Homo sapiens, MCF-10A): > 500 µM; MIC ([2]; Staphylococcus aureus, ATCC23235, read-out: M.I.C. S. aureus): > 200 µg/mL; MIC ([3]; Enterococcus faecalis, ATCC19433, read-out: M.I.C. E. faecalis): > 200 µg/mL; MIC ([4]; Staphylococcus epidermidis, ATCC14990, read-out: M.I.C. S. epidermidis): > 200 µg/mL; IC50 DPPH scavenging [5]: did not show any scavenging capacity; IC50 ABTS scavenging [6]: did not show any scavenging capacity; Inhibition of hTopo I supercoil relaxing activity [12]: failed; MIC ([7]; Pseudomonas aeruginosa, ATCC15442, read-out: M.I.C. P. aeruginosa): > 200 µg/mL; IC50 (MDA-MB-231; Homo sapiens, MDA-MB-231, 72 h): > 500 µM; IC50 (MCF-7; Homo sapiens, MCF7, 72 h): > 500 µM; MIC ([9]; Klebsiella pneumoniae, ATCC13883, read-out: M.I.C. K. pneumoniae): > 200 µg/mL; MIC ([10]; Escherichia coli, ATCC25922): > 200 µg/mL |
